# Experimental data reported in PMC10295546, “Synthesis, Cytotoxicity and Molecular Docking of New Hybrid Compounds by Combination of Curcumin with Oleanolic Acid” (Biomedicines, 2023).
# What was measured:
# Type in all cases: cell-based, human
# HeLaWT cells [1] = assay: MTT cell viability assay, HeLaWT
# Experimental: (§1) The assay was performed as previously described.
# HT-29 cells [2] = assay: MTT cell viability assay, HT-29; settings: for IC50: MTT
# Experimental: as §1
# MCF7 cells [3] = assay: MTT cell viability assay, MCF7; settings: for IC50: MTT
# Experimental: as §1
# MCF-12A cells = assay: MTT cell viability assay, non-tumorigenic MCF-12A
# Experimental: as §1
# HeLaWT cells [4] = assay: Cell cycle analysis (propidium iodide flow cytometry), HeLaWT
# Experimental: (§2) To analyze the influence of the chosen compounds on the cell cycle, a flow cytometry analysis using propidium iodide was performed as previously described. The HT-29, MCF7 and HeLaWT cells (3 × 10^5 cells) were incubated overnight to reach sedimentation and then were treated with 0.5 and 1 × IC50 of KS1, KS2, KS5, KS6, KS7 and KS8, or Doxorubicin (positive control). Cell cycle analysis was performed after incubation for 24 h. Then, cells were harvested, washed twice with phosphate-buffered saline (PBS), and incubated with a solution of 1% saponin, 50 µg/mL propidium iodide and 10 mg/mL of RNase A (Sigma-Aldrich, Schnelldorf, Germany) in PBS for 1 h at 37 °C. DNA content was analyzed by flow cytometry at the […] wavelength of 488 nm using FACScan (Becton–Dickinson, Franklin Lakes, NJ, USA). The relative proportions of cells in the G1/G0, S and G2/M phases of the cell cycle were determined from the obtained data. Three separate experiments in triplicates were performed for each cell line.
# HT-29 cells [5] = assay: Cell cycle analysis (propidium iodide flow cytometry), HT-29
# Experimental: as §2
# MCF7 cells [6] = assay: Cell cycle analysis (propidium iodide flow cytometry), MCF7; settings: MCF7, both applied concentrations (0.5 × IC50 and 1 × IC50), 24 h
# Experimental: as §2
# HeLaWT cells [7] = assay: TUNEL assay, HeLaWT
# Experimental: (§3) To determine the percentage of apoptotic cells, the TUNEL assay was performed as described elsewhere. TUNEL staining for the detection and quantification of apoptosis at the single-cell level was performed using an in situ cell death detection kit (Roche, Mannheim, Germany) according to the manufacturer’s protocol. Briefly, HT-29, HeLaWT and MCF7 cells (5 × 10^5/well) were seeded into 6-well plates and cultured overnight before exposure to different concentrations of tested compounds for 24 h. For TUNEL labeling, cells were harvested, fixed, permeabilized and labeled with the TUNEL reaction mixture (enzyme and label solutions) for 1 h at 37 °C in the dark. Negative controls were created by omitting the terminal deoxynucleotidyl enzyme and adding the same volume of the label solution. The cells were analyzed using a FACScan flow cytometer (Becton–Dickinson, Franklin Lakes, NJ, USA).
# HT-29 cells [8] = assay: TUNEL assay, HT-29; settings: HT-29, 1 × IC50, 24 h, non-statistically significant
# Experimental: as §3
# [9] = test system: HeLaWT, HT-29, MCF7 and MCF-12A cells; assay: MTT cell viability assay, statement for all studied cells; settings: for IC50: Homo sapiens, all studied cells, applied concentration range, time not specified
# Experimental: as §1
# [10] = Homo sapiens, MCF-12A, 24 h, MTT
# [11] = Homo sapiens, MCF-12A, 48 h, MTT
# [12] = Homo sapiens, MCF-12A, 72 h, MTT
# [13] = Homo sapiens, non-cancerous MCF-12A cells, applied concentration range, time not specified
SMILES,"IC50 (HeLaWT cells [1]; Homo sapiens, 24 h) [µM]","IC50 (HeLaWT cells [1]; Homo sapiens, 48 h) [µM]","IC50 (HeLaWT cells [1]; Homo sapiens, 72 h) [µM]","IC50 (HT-29 cells [2]; Homo sapiens, HT-29, 24 h) [µM]","IC50 (HT-29 cells [2]; Homo sapiens, HT-29, 48 h) [µM]","IC50 (HT-29 cells [2]; Homo sapiens, HT-29, 72 h) [µM]","IC50 (MCF7 cells [3]; Homo sapiens, MCF7, 24 h) [µM]","IC50 (MCF7 cells [3]; Homo sapiens, MCF7, 48 h) [µM]","IC50 (MCF7 cells [3]; Homo sapiens, MCF7, 72 h) [µM]",IC50 (MCF-12A cells; [10]) [µM],IC50 (MCF-12A cells; [11]) [µM],IC50 (MCF-12A cells; [12]) [µM],IC50 (MCF-12A cells; [13]) [µM],IC50 [9] [µM],further results
"CC1(C)CCC2(C(=O)O)CCC3(C)C(=CCC4C5(C)CCC(OC(=O)CCC(=O)O)C(C)(C)C5CCC43C)C2C1 (stereo not drawn) [KS1, 4-{[(3 β )-28-hydroksy-28-oxoolean-12-en-3-yl]oxy}-4-oxobutanoic acid]",–,–,–,–,–,–,–,–,–,–,–,–,–,–,"IC50 (HeLaWT cells [1]; 24 h): > 100 µM; IC50 (HeLaWT cells [1]; 48 h): > 100 µM; IC50 (HeLaWT cells [1]; 72 h): > 100 µM; cytotoxic activity (in words) (HeLaWT cells [1]; summary of Table 1): inactive; IC50 (HT-29 cells [2]; HT-29, 24 h): > 100 µM; IC50 (HT-29 cells [2]; HT-29, 48 h): > 100 µM; IC50 (HT-29 cells [2]; HT-29, 72 h): > 100 µM; cytotoxic activity (in words) (HT-29 cells [2]; HT-29, MTT, summary of Table 1): inactive; IC50 (MCF7 cells [3]; MCF7, 24 h): > 100 µM; IC50 (MCF7 cells [3]; MCF7, 48 h): 34.4 ± 2.2 µM; IC50 (MCF7 cells [3]; MCF7, 72 h): 22.5 ± 0.9 µM; cytotoxic activity (in words) (MCF7 cells [3]; MCF7, MTT, summary of Table 1): quite active; IC50 (MCF-12A cells; MCF-12A, 24 h, MTT): > 100 µM; IC50 (MCF-12A cells; MCF-12A, 48 h, MTT): 47.7 ± 2.1 µM; IC50 (MCF-12A cells; MCF-12A, 72 h, MTT): 42.1 ± 1.9 µM"
"COc1cc(/C=C/C(=O)CC(=O)/C=C/c2ccc(O)c(OC)c2)ccc1O [KS2, curcumin]",57.2 ± 2.2,28.7 ± 1.1,16.2 ± 0.65,25.2 ± 1.3,13.9 ± 0.7,11.1 ± 0.6,15.6 ± 0.8,14.6 ± 0.6,7.5 ± 0.4,75.6 ± 2.5,46.4 ± 2,42 ± 1.6,–,–,"effect on cell cycle phases (HeLaWT cells [4]; 0.5 × IC50, 24 h): a decrease in the G0/G1 phase, and an increase in the G2/M phase; effect on cell cycle phases (HeLaWT cells [4]; 1 × IC50, 24 h): a decrease in the number of cells in the G0/G1 phase; increase of apoptotic cells (cell cycle analysis) (HeLaWT cells [4]; 1 × IC50, 24 h): up to 10%; increase of apoptotic cells (cell cycle analysis) (HT-29 cells [5]; HT-29, 24 h, in comparison to control untreated cells): 7%; effect on cell cycle phases (HT-29 cells [5]; HT-29, both applied concentrations (0.5 × IC50 and 1 × IC50), 24 h): a decrease in the G0/G1 phase, and an increase in the G2/M phase; effect on cell cycle phases (MCF7 cells [6]): a decrease in the G0/G1 phase, and an increase in the G2/M phase; number of apoptotic cells (TUNEL) (HeLaWT cells [7]; 0.5 × IC50, 24 h): 30%; number of apoptotic cells (TUNEL) (HeLaWT cells [7]; 1 × IC50, 24 h): 80%; increase of apoptosis (TUNEL) (HT-29 cells [8]): 10%"
"COC(=O)C12CCC(C)(C)CC1C1=CCC3C4(C)CCC(OC(=O)CCC(=O)Oc5ccc(/C=C/C(O)=C/C(=O)/C=C/c6ccc(O)c(OC)c6)cc5OC)C(C)(C)C4CCC3(C)C1(C)CC2 (stereo not shown) [KS3, Curcumin mono-oleanoyl hydrogen succinate methyl ester]",> 100,> 100,> 100,> 100,> 100,> 100,> 100,> 100,> 100,> 100,> 100,> 100,> 100,> 100,–
"COc1cc(/C=C/C(=O)/C=C(O)/C=C/c2ccc(OC(=O)CCC(=O)OC3CCC4(C)C(CCC5(C)C4CC=C4C6CC(C)(C)CCC6(C(=O)O)CCC45C)C3(C)C)c(OC)c2)ccc1O (stereo not shown) [KS4, Curcumin mono-oleanoyl hydrogen succinate]",> 100,> 100,> 100,> 100,> 100,> 100,> 100,> 100,> 100,> 100,> 100,> 100,> 100,> 100,–
"COc1cc(/C=C/c2cc(/C=C/c3ccc(OC(=O)CCC(=O)OC4CCC5(C)C(CCC6(C)C5CC=C5C7CC(C)(C)CCC7(C(=O)O)CCC56C)C4(C)C)c(OC)c3)on2)ccc1O (stereo not shown) [KS5, Curcumin isoxazole mono-oleanoyl hydrogen succinate]",70.1 ± 3.5,51.2 ± 2.5,27.3 ± 1.4,29 ± 1.4,23.2 ± 1.2,21.5 ± 1.1,80.8 ± 4,45.6 ± 2.3,37.8 ± 1.9,83.2 ± 3.1,68.7 ± 2.4,49.9 ± 1.6,–,–,–
"COc1cc(/C=C/c2cc(/C=C/c3ccc(OC(=O)CCC(=O)OC4CCC5(C)C(CCC6(C)C5CC=C5C7CC(C)(C)CCC7(C(=O)O)CCC56C)C4(C)C)c(OC)c3)[nH]n2)ccc1O (stereo not shown) [KS6, Curcumin pyrazole mono-oleanoyl hydrogen succinate]",77.1 ± 3.8,45 ± 2.3,25.9 ± 1.3,94.4 ± 4.7,51.9 ± 2.6,26 ± 1.3,69.1 ± 3.4,25.9 ± 1.3,20.2 ± 1,> 100,54.3 ± 2.7,44.6 ± 1.9,–,–,–
"COC(=O)C12CCC(C)(C)CC1C1=CCC3C4(C)CCC(OC(=O)CCC(=O)Oc5ccc(/C=C/c6cc(/C=C/c7ccc(O)c(OC)c7)no6)cc5OC)C(C)(C)C4CCC3(C)C1(C)CC2 (stereo not shown) [KS7, Curcumin isoxazole mono-oleanoyl hydrogen succinate methyl ester]",> 100,> 100,> 100,> 100,> 100,> 100,> 100,> 100,> 100,> 100,> 100,> 100,> 100,> 100,"cytotoxic activity (in words) ([9]; all cell lines, MTT, summary of Table 1): inactive"
"COC(=O)C12CCC(C)(C)CC1C1=CCC3C4(C)CCC(OC(=O)CCC(=O)Oc5ccc(/C=C/c6cc(/C=C/c7ccc(O)c(OC)c7)n[nH]6)cc5OC)C(C)(C)C4CCC3(C)C1(C)CC2 (stereo not shown) [KS8, Curcumin pyrazole mono-oleanoyl hydrogen succinate methyl ester]",53.4 ± 2.7,36.9 ± 1.8,25.6 ± 1.2,20.6 ± 1,17.9 ± 0.9,17.3 ± 0.9,44.3 ± 2.2,33.2 ± 1.7,29.9 ± 1.5,62.7 ± 3.1,43.4 ± 2.2,42.3 ± 2.5,–,–,–
